Measurements as given in US20240034765A1, “SCG2 NEUROPEPTIDES AND USES THEREOF” (PRESIDENT AND FELLOWS OF HARVARD COLLEGE, priority 2020, published 2024).

Columns and labels:
[1] = test system: IPSCs in CA1 pyramidal neurons; experiment: Check that IPSCs in dual whole-cell recordings are monosynaptic (onset latency); type: cell-based, mice; conditions: NBQX and (R)-CPP added together in the bath
Description: For electrical stimulation experiments, electrical current was delivered via theta glass stimulation electrode placed in the center of stratum pyramidale or stratum radiatum within 150-200 μm of the recorded neuron pair. The stimulus strength was the minimum required to generate small but reliable currents in both neurons. IPSCs were pharmacologically isolated via the addition of 10 μM NBQX (TOCRIS 1044) and 10 μM (R)-CPP (TOCRIS 0247) to the ACSF perfusion.
For the paired interneuron-to-CA1 pyramidal neuron recordings, the monosynaptic nature of the IPSCs was confirmed based on the expected onset latency of 1-3 ms in slice.

[2] = test system: PV-IPSCs in CA1 PCs; experiment: shRNA-mediated gene knockdown, dual whole-cell recordings of light-evoked PV-IPSCs; type: in vivo; conditions: Dlx5/6Flp; PVCre mice treated with KA for 24 h
Excerpt: To identify molecular effector(s) of bidirectional perisomatic inhibitory plasticity downstream of Fos activation, short hairpin RNA (shRNA)-mediated gene knockdown was used to determine if any of the six candidate genes mediate the activity-dependent strengthening of PV-mediated inhibition. After verifying the efficiency of knockdown in neurons (see e.g., FIG. 13B) and the absence of adverse effects on overall neuronal viability, individual shRNAs were cloned into a Flp-OFF AAV, allowing payload inactivation by Flp recombinase and the exclusion of shRNA expression in GABAergic INs when using Dlx5/6^Flp mice (see e.g., FIG. 4A, FIG. 4B, FIG. 13C, FIG. 8A).
Following sparse transduction of neurons, PV-IPSCs was simultaneously measured in neighboring pairs of shRNA-positive (mCherry^+) and shRNA-negative (mCherry^−) PCs by photostimulating PV-specific ChR2-expressing boutons in Dlx5/6^Flp; PV^Cre mice that had been treated with KA for 24 h (see e.g., FIG. 4B). […] Similar results were observed following more the physiological condition of NE exposure (see e.g., FIG. 4E, FIG. 13F), indicating a prominent role for CA1 PC-derived Scg2 in the long-term regulation of PV-mediated inhibition.
Viral vectors and titers. All AAVs used were prepared in a Hospital Viral Core and were of serotype AAV2/1. For sparse transductions, viruses were injected at 1×10^8 genome copies per hippocampal hemisphere. For dense transductions, viruses were injected at 2×10^9 genome copies (gc) per hippocampal hemisphere. The viral vectors and original titers were as follows: pAAV-EF1a-DIO-hChR2(H134R)-EYFP (ADDGENE 20298, 1.75×10^13 gc/mL), pAAV-EF1a-fDIO-hChR2(H134R)-EYFP (ADDGENE 55639, 1.39×10^13 gc/mL), pAAV-hSyn-Con/Fon-hChR2-EYFP (ADDGENE 55645, […]), pAAV-pRAM-tTA::TRE-NLS-mKate2-WPREpA (ADDGENE 84474, 2.25×10^13 gc/mL), pAAV-CAG-Cre-GFP (OHIO STATE UNIVERSITY, 1.75×10^13 gc/mL), pAAV-CAG-Cre-mCherry (described herein, 9.10×10^12 gc/mL), pAAV-CAG-Cre-mTagBFP2 (described herein, 2.97×10^12 gc/mL), pAAV-CAG-deltaCre-GFP (described herein, 2.79×10^12 gc/mL), pAAV-FlpOFF-u6-shRNA-CAG-mCherry (described herein): Scrambled control shRNA (SEQ ID NO: 13, ACTTACGCTGAGTACTTCG) (5.08×10^13 gc/mL), Inhba (SEQ ID NO: 14, […]) (4.62×10^13 gc/mL), Bdnf (SEQ ID NO: 15, […]) (6.97×10^13 gc/mL), Pcsk1 (SEQ ID NO: 16, […]) (6.02×10^12 gc/mL), Nptx2 (SEQ ID NO: 17, […]) (1.30×10^12 gc/mL), Scg2#1 (SEQ ID NO: 18, […]) (8.11×10^11 gc/mL), Scg2#2 (SEQ ID NO: 19, […]) (2.75×10^13 gc/mL), Rgs2 (SEQ ID NO: 20, […]) (6.14×10^12 gc/mL), pAAV-CaMKIIa-mCherry (described herein, 3.80×1012 gc/mL), pAAV-CaMKIIa-hM3DGq-T2A-mCherry (described herein, 1.20×10^12 gc/mL), pAAV-hSyn-FlpOFF-Kir2.1-T2A-mCherry (described herein, 2.26×10^12 gc/mL), pAAV-hSyn-FlpOFF-Kir.2.1(Mutant)-T2A-mCherry (described herein, 1.28×10^12 gc/mL; see e.g., Xue et al. (2014), supra), pAAV-u6(Frt)-shRNA#31-CAG-Scg2-rescue (shRNA-resistant)-1×HA-T2A-mCherry-Frt-SV40 (described herein, 1.88×10^12 gc/mL), pAAV-CAG-DIO-Scg2(WT)-3×HA-bGH polyA (described herein, 8.22×10^13 gc/mL), pAAV-CAG-DIO-Scg2(9AA Mutant)-3×HA-bGH polyA (described herein, 6.13×10^13 gc/mL), pAAV-CAG-Frt-Scg2(WT)-1×HA-T2A-mCherry-Frt-bGH polyA (described herein, 1.08×10^13 gc/mL), and pAAV-CAG-Scg2(9AA Mutant)-1×HA-T2A-mCherry-Frt-bGH polyA (described herein, 3.71×10^12 gc/mL).
Ex vivo electrophysiology.

[3] = test system: PV-IPSCs in CA1 PCs; experiment: Scg2 rescue and overexpression, dual whole-cell recordings of PV-IPSCs; type: in vivo, mice
Excerpt: These findings were further corroborated through a series of rescue and overexpression experiments. […] In addition, amplitudes of light-evoked PV-IPSCs or CCK-IPSC were compared in Scg2-overexpressing (Scg2-OE) and neighboring control (Scg2-WT) neurons; gain-of-function of Scg2 was sufficient to strengthen PV-mediated inhibition and weaken CCK-mediated inhibition, respectively, in the absence of neural activity (see e.g., FIG. 5J, FIG. 15E, FIG. 15F).
Cleavage of the Scg2 precursor gives rise to multiple neuropeptides with distinct functions (see e.g., FIG. 4F). Given that Scg2 cleavage is directed by a series of internal dibasic residues, a cleavage-resistant form of Scg2 was generated in which the nine dibasic sequences were mutated to alanine (9AA-Mut).
Viral vectors and titers. All AAVs used were prepared in a Hospital Viral Core and were of serotype AAV2/1. For sparse transductions, viruses were injected at 1×10^8 genome copies per hippocampal hemisphere. For dense transductions, viruses were injected at 2×10^9 genome copies (gc) per hippocampal hemisphere. […]

[4] = test system: CCK-IPSCs in CA1 PCs; experiment: Scg2 rescue and overexpression, dual whole-cell recordings of CCK-IPSCs; type: in vivo, mice
[5] = exogenous expression in shRNA-mediated knockdown or Scg2fl/fl knockout conditions
[6] = overexpression in the absence of neural activity

`NS(=O)(=O)c1cccc2c1c([N+](=O)[O-])cc1nc(O)c(O)nc12` [NBQX, 2,3-dihydroxy-6-nitro-7-sulphamoyl-benzo(F)quinoxaline] was tested. Which “onset latency of the IPSCs” value [1] did it give?
The value was “did not alter”.

For “shRNA Pcsk1: shRNA in pAAV-FlpOFF-u6-shRNA-CAG-mCherry, SEQ ID NO: 16, GATAATGATCATGATCCATT”, which “amplitudes of PV-IPSC in shRNA-positive versus neighboring shRNA-negative PCs” value [2] is on record?
Its value is “no effects”.

How did the “amplitudes of PV-IPSC in shRNA-positive versus neighboring shRNA-negative PCs” value [2] turn out when “shRNA Rgs2: shRNA in pAAV-FlpOFF-u6-shRNA-CAG-mCherry, SEQ ID NO: 20, GCTCCCAAAGAGATAAACAT” was run?
Its value is “no effects”.

With “shRNA Bdnf: shRNA in pAAV-FlpOFF-u6-shRNA-CAG-mCherry, SEQ ID NO: 15, GAATTGGCTGGCGATTCATA” as the molecule, how does the “amplitudes of PV-IPSC in shRNA-positive versus neighboring shRNA-negative PCs” value [2] read?
Its value is “slight decrease”.

For `O=C(O)[C@H]1CN(CCCP(=O)(O)O)CCN1` [(R)-CPP, 3-((R)-2-Carboxypiperazin-4-yl)-propyl-1-phosphonic acid], which “onset latency of the IPSCs” value [1] is on record?
Its value is “did not alter”.

For “shRNA Nptx2: shRNA in pAAV-FlpOFF-u6-shRNA-CAG-mCherry, SEQ ID NO: 17, GAAGACATTGCCTGAGCTGT”, which “amplitudes of PV-IPSC in shRNA-positive versus neighboring shRNA-negative PCs” value [2] is on record?
The value was “no effects”.

With “shRNA Inhba: shRNA in pAAV-FlpOFF-u6-shRNA-CAG-mCherry, SEQ ID NO: 14, CCTTCCACTCAACAGTCATT” as the molecule, how does the “amplitudes of PV-IPSC in shRNA-positive versus neighboring shRNA-negative PCs” value [2] read?
Its value is “no effects”.

B1: Scg2: wildtype full-length Scg2 (secretogranin II) precursor protein exogenously expressed from AAV in CA1 pyramidal cells (protein, UniProt Q03517 1-617, looked up)
chain: MAGAKAYRLGAVLLLIHLIFLISGAEAASFQRNQLLQKEPDLRLENVQKFPSPEMIRALEYIEKLRQQAHREESSPDYNPYQGVSVPLQLKENGEESHLAESSRDALSEDEWMRIILEALRQAENEPPSAPKENKPYALNLEKNFPVDTPDDYETQQWPERKLKHMRFPLMYEENSRENPFKRTNEIVEEQYTPQSLATLESVFQELGKLTGPSNQKRERVDEEQKLYTDDEDDVYKTNNIAYEDVVGGEDWSPIEEKIETQTQEEVRDSKENTEKNEQINEEMKRSGQLGLPDEENRRESKDQLSEDASKVITYLRRLVNAVGSGRSQSGPNGDRAARLLQKPLDSQSIYQLIEISRNLQIPPEDLIEMLKAGEKPNGLVEPEQDLELAVDLDDIPEADLDRPDMFQSKMLSKGGYPKAPGRGMVEALPDGLSVEDILNVLGMENVVNQKSPYFPNQYSQDKALMRLPYGPGKSRANQIPKVAWIPDVESRQAPYENLNDQELGEYLARMLVKYPELLNTNQLKRVPSPVSSEDDLQEEEQLEQAIKEHLGPGSSQEMERLAKVSKRIPVGSLKNEDTPNRQYLDEDMLLKVLEYLNQEQAEQGREHLAKRAMENM
modifications: full-length
notes: wildtype full-length Scg2 (secretogranin II) precursor protein exogenously expressed from AAV in CA1 pyramidal cells
With B1 as the molecule, how does the “PV-mediated inhibition, rescue of loss of Scg2” value [3, 5] read?
The value was “restored to control levels”.

What about the “PV-mediated inhibition, overexpressing versus neighboring control neurons” value [3, 6] of the same molecule?
Its value is “strengthen”.

And the “CCK-mediated inhibition, rescue of loss of Scg2” value [4, 5]?
Its value is “restored to control levels”.

What about the “CCK-mediated inhibition, overexpressing versus neighboring control neurons” value [4, 6] of the same molecule?
Its value is “weaken”.
